Experimental data as given in patent publication US20100256177A1, “Flavopereirine derivatives for cancer therapy” (priority 2004, published 2010).
In brackets after ≈: the same amount, converted by molar mass.

Legend:
Assay type in all cases: cell-based
[1] = system: L132 (lung) human tumor cell line; experiment: three day MTT cytotoxicity assay, L132 lung; conditions: L132 lung cells, 72 hours
Procedure: (§1) A number of the Flavopereirine derivatives were tested for cytotoxicity against nine (9) human tumor cell lines. Briefly, a three day MTT cytotoxicity assay was performed, which is based on the principle of uptake of MTT (3-(4,5-dimethylthiazol-2-yl)-2,5-diphenyl tetrazolium bromide), a tetrazolium salt, by the metabolically active cells where it is metabolized by active mitochondria into a blue colored formazan product that is read spectrophotometrically. MIT was dissolved in phosphate buffered saline with a pH of 7.4 to obtain an MTT concentration of 5 mg/ml; the resulting mixture was filtered through a 0.22-micron filter to sterilize and remove a small amount of insoluble residue. For each type of tumor cell, 10000 to 15000 cells were seeded in a 96-well culture plate and incubated with the individual Flavopereirine derivatives in concentration ranging from 1-20 μg/ml in a CO2 incubator for a total of 72 hours. Control cells not treated with the Flavopereirine derivatives were similarly incubated. The assay was terminated by adding 100 μg (20 μl) of MTT to each well, then incubating for additional one hour, and finally adding 50 μl of 10% SDS-0.01N HCl to each well to lyse the cells and dissolve formazan. After incubating for one hour, the plate was read spectrophotometrically at 540 nm and the percentage of cytotoxicity calculated using the following formula:
(§2) Cytotoxicity percentage=100×[1-(X/R1)], where X=(absorbance of treated sample at 540 nm)−(absorbance of blank at 540 nm) R1=absorbance of control sample at 540 nm.
(§3) The IC50 Values of the cytotoxicity defined as the concentration at which 50% of the cells are killed in vitro was calculated for each cell line treated with each of the Flavopereirine derivatives.
(§4) The cell lines are ovary (PA-1), breast (MCF-7), prostate (DU145), pancreas (MiaPaCa.2), oral cavity (KB), lung (L132), colon (SW620), and larynx (HeP2).

[2] = system: MiaPaca2 (pancreas) human tumor cell line; experiment: three day MTT cytotoxicity assay, MiaPaca2 pancreas; conditions: 72 hours; for IC50 (μg/mL) of Flavoperereine derivatives in human tumor cell lines, MiaPaca2 Pancreas: MiaPaca2 pancreas cells
Procedure: as §1, §2, §3, §4

[3] = system: ECV-304 (endothelial) cell line; experiment: three day MTT cytotoxicity assay, ECV-304 endothelial; conditions: ECV-304 endothelial cells, 72 hours
Procedure: as §1, §2, §3

[4] = system: PA1 (ovary) human tumor cell line; experiment: three day MTT cytotoxicity assay, PA1 ovarian; conditions: PA1 ovarian cells, 72 hours
Procedure: as §1, §2, §3, §4

[5] = system: MCF7 (breast) human tumor cell line; experiment: three day MTT cytotoxicity assay, MCF7 breast; conditions: MCF7 breast cells, 72 hours
Procedure: as §1, §2, §3, §4

[6] = system: DU145 (prostate) human tumor cell line; experiment: three day MTT cytotoxicity assay, DU145 prostate; conditions: 72 hours; for IC50 (μg/mL) of Flavoperereine derivatives in human tumor cell lines, DU145 Prostate: DU145 prostate cells
Procedure: as §1, §2, §3, §4

[7] = system: SW620 (colon) human tumor cell line; experiment: three day MTT cytotoxicity assay, SW620 colon; conditions: 72 hours; for IC50 (μg/mL) of Flavoperereine derivatives in human tumor cell lines, SW620 Colon: SW620 colon cells
Procedure: as §1, §2, §3, §4

[8] = system: KB (oral cavity) human tumor cell line; experiment: three day MTT cytotoxicity assay, KB oral; conditions: KB oral cells, 72 hours
Procedure: as §1, §2, §3, §4

[9] = system: Hep2 (larynx) human tumor cell line; experiment: three day MTT cytotoxicity assay, Hep2 larynx; conditions: 72 hours; for IC50 (μg/mL) of Flavoperereine derivatives in human tumor cell lines, Hep2 Larynx: Hep2 larynx cells
Procedure: as §1, §2, §3, §4

| SMILES | IC50 (μg/mL) of Flavoperereine derivatives in human tumor cell lines, L132 Lung [1] | IC50 (μg/mL) of Flavoperereine derivatives in human tumor cell lines, MiaPaca2 Pancreas [2] | IC50 (μg/mL) of Flavoperereine derivatives in human tumor cell lines, ECV-304 Endothelial [3] | IC50 (μg/mL) of Flavoperereine derivatives in human tumor cell lines, PA1 Ovarian [4] | IC50 (μg/mL) of Flavoperereine derivatives in human tumor cell lines, MCF7 Breast [5] | IC50 (μg/mL) of Flavoperereine derivatives in human tumor cell lines, DU145 Prostate [6] | IC50 (μg/mL) of Flavoperereine derivatives in human tumor cell lines, SW620 Colon [7] | IC50 (μg/mL) of Flavoperereine derivatives in human tumor cell lines, KB Oral [8] | IC50 (μg/mL) of Flavoperereine derivatives in human tumor cell lines, Hep2 Larynx [9] | IC50 ([1]; Homo sapiens, read-out: IC50 (μg/mL) of Flavoperereine derivatives in human tumor cell lines, L132 Lung) | IC50 ([2]; Homo sapiens, MIA PaCa-2, MiaPaca2 pancreas cells, read-out: IC50 (μg/mL) of Flavoperereine derivatives in human tumor cell lines, MiaPaca2 Pancreas) | IC50 ([3]; Homo sapiens, read-out: IC50 (μg/mL) of Flavoperereine derivatives in human tumor cell lines, ECV-304 Endothelial) | IC50 ([4]; Homo sapiens, read-out: IC50 (μg/mL) of Flavoperereine derivatives in human tumor cell lines, PA1 Ovarian) | IC50 ([5]; Homo sapiens, read-out: IC50 (μg/mL) of Flavoperereine derivatives in human tumor cell lines, MCF7 Breast) | IC50 ([6]; Homo sapiens, DU-145, DU145 prostate cells, read-out: IC50 (μg/mL) of Flavoperereine derivatives in human tumor cell lines, DU145 Prostate) | IC50 ([7]; Homo sapiens, SW-620, SW620 colon cells, read-out: IC50 (μg/mL) of Flavoperereine derivatives in human tumor cell lines, SW620 Colon) | IC50 ([8]; Homo sapiens, read-out: IC50 (μg/mL) of Flavoperereine derivatives in human tumor cell lines, KB Oral) | IC50 ([9]; Homo sapiens, HEp-2, Hep2 larynx cells, read-out: IC50 (μg/mL) of Flavoperereine derivatives in human tumor cell lines, Hep2 Larynx) |
| --- | --- | --- | --- | --- | --- | --- | --- | --- | --- | --- | --- | --- | --- | --- | --- | --- | --- | --- |
| Fc1ccc(COc2ccc3c4[nH]c5ccccc5c4cc[n+]3c2)cc1.[O-][Cl+3]([O-])([O-])[O-] [Compound 32] | <1 µg/mL | <1 µg/mL | 24 µg/mL | 6 µg/mL | <1 µg/mL | 2 µg/mL | 5 µg/mL | <1 µg/mL | 4 µg/mL | – | – | – | – | – | – | – | – | – |
| Brc1ccc(COc2ccc3[n+](c2)CCc2c-3[nH]c3ccccc23)cc1.[Br-] [Compound 26] | – | 9.5 µg/mL | 12 µg/mL | >100 µg/mL | >100 µg/mL | 7.5 µg/mL | >100 µg/mL | 6 µg/mL | 24 µg/mL | – | – | – | – | – | – | – | – | – |
| CCOc1ccc2c3[nH]c4ccccc4c3cc[n+]2c1 [Compound 29, 3-ethoxyindolor-2,3-alquinolizinium] | 15 µg/mL | – | 4 µg/mL | 5 µg/mL | – | – | 10 µg/mL | 10 µg/mL | 8.0 µg/mL | – | – | – | – | – | – | – | – | – |
| BrCCCOc1ccc2c3[nH]c4ccccc4c3cc[n+]2c1.[O-][Cl+3]([O-])([O-])[O-] [Compound 30] | 10 µg/mL | 4 µg/mL | 6 µg/mL | 2 µg/mL | 6 µg/mL | 7.5 µg/mL | 6 µg/mL | 10 µg/mL | 1.5 µg/mL | – | – | – | – | – | – | – | – | – |
| C1=CC2=C3N=c4ccccc4=C3CCN2C=C1OCc1ccccc1 [Compound 23, 3-benzyloxy-6,7-dihydroindolo[2,3-a]quinolizine] | – | – | – | – | – | – | – | – | – | 20 µg/mL (≈ 61.3 µM) | 10 µg/mL (≈ 30.6 µM) | 16 µg/mL (≈ 49 µM) | 31 µg/mL (≈ 95 µM) | 5 µg/mL (≈ 15.3 µM) | 10 µg/mL (≈ 30.6 µM) | 11 µg/mL (≈ 33.7 µM) | 12 µg/mL (≈ 36.8 µM) | 17 µg/mL (≈ 52.1 µM) |
| CCCCOc1ccc2[n+](c1)CCc1c-2[nH]c2ccccc12.[Br-] [Compound 27] | – | 7.5 µg/mL | – | 4.7 µg/mL | 6 µg/mL | 9 µg/mL | 4 µg/mL | 7 µg/mL | 5 µg/mL | – | – | – | – | – | – | – | – | – |
